Measurements published in patent publication US20250325469A1, “Inhibitors of atp synthase - cosmetic and therapeutic uses” (priority 2021, published 2025).

How the values were obtained:
F1F0 ATP hydrolysis [1] = target: T1, F1F0 ATP hydrolysis (Bos taurus, UniProt P00829+P19483); settings: cited from earlier work; for IC50: IF1 protein depleted SMPs from Bos taurus, pH 6.7, 37° C. [142]
T1 construct: IF1 protein depleted Sub-Mitochondrial Particles (SMPs) from Bos taurus; from tissue; host or cells: sub-mitochondrial particles from Bos taurus, endogenous IF1 removed

[2] = tested on: cancer cell lines of the NCI-60 assay; assay: NCI one-dose (10 μM) NCI-60 testing; type: cell-based; settings: for anti-cancer activity: NCI-60 anti-cancer testing in vitro; for inhibition at 10 µM: 1-dose testing
Procedure: FIG. 1: Chiral supercritical fluid chromatography (SFC) was used to separate the shown racemate into its component R and S stereoisomers and two samples of opposite >97% enantiomeric excess (ee) was achieved: termed 8a and 8b respectively. 8a and 8b differ from 6a and 6b because they have methyl (Me, CH3), instead of hydrogen (H), upon their chiral carbon. 8a and 8b were independently tested in NCI one-dose (10 μM) testing: their results are shown in FIGS. (1B) and (1C) respectively.
(§1) (1E) 8a and 8b NCI one-dose (10 μM) test results side by side. % cancer growth inhibition >100 means there are less cancer cells at experiment end than beginning (i.e. cancer killing activity), =200=all cancer cells dead at experiment end. The observed pattern of 8a vs. 8b activity is hard to explain. One would expect one stereoisomer to have greater or equal activity than the other. […] Moreover, for one cancer cell line (NCI-H322M), 8a has no activity, yet 8b does.

F1F0 ATP hydrolysis [3] = settings: [8, 109]; cited from earlier work
cells = settings: each attached to the cargo sequence by introduced cysteines and a disulphide bond; cited from earlier work
A498 = assay: NCI one-dose (10 μM) testing, A498; type: cell-based
Procedure: as §1

NCI-H322M = assay: NCI one-dose (10 μM) testing, NCI-H322M; type: cell-based
Procedure: as §1

[4] = tested on: cancer cell lines of the NCI-60 assay; assay: NCI-60 five-dose in vitro assay; type: cell-based; settings: at 10 μM in 5-dose testing
Procedure: The present figure, herein, is a summary figure of that data (corresponding to FIG. 16K in the aforementioned Canadian application). Mean G150 for 8b and 8a is 3.09 and 2.85 μM respectively. […] In the 8a case, this GI50 is lower/better than 65% of 102 FDA approved cancer drugs in [112]. A salt of 8a. e.g. 8a HCl, is likely to have an even lower G150 in NCI five-dose testing.
The Pearson correlation coefficient between 8a activity in 1-dose (10 μM) and at 10 μM in 5-dose NCI-60 testing: R=0.4544 p=0.00034. The Pearson correlation coefficient between 8b activity in 1-dose (10 μM) and at 10 μM in 5-dose NCI-60 testing: R=0.6156, p<0.00001. […] So, this isn't unexpected. Not wishing to be bound by theory, in 5-dose NCI-60 testing, why 8a has a lower mean GI50 than 8b will now be explained. […] Except for the cancer cell lines that 8b exerted much more activity than 8a at in 1-dose testing, wherein the increased activity of 8a can't completely make up the deficit and overtake the activity of 8b.

MDA-MB-231/ATCC = assay: NCI one-dose (10 μM) testing, MDA-MB-231/ATCC; type: cell-based
Procedure: as §1

[5] = rectal temperature and activity of mice administered compound; type: in vivo, mouse
Procedure: Hypoactivity of mouse, after being administered compound 6b, was because 6b caused the mouse's body temperature to drop towards its ambient temperature (22° C.). When ambient equals optimal body temperature (37° C.), 6b cannot reduce body temperature and cannot cause hypoactivity. In some embodiments, the hypoactivity/sedation aspect to a compound(s) of this disclosure is utilized for therapy. The intersection between drug dose and ambient temperature dictates how much the body temperature falls and thence the depth of the sedation. Larger drug dose, and/or lower ambient temperature, causes deeper sedation (e.g. useful for inducing anaesthesia, pre-anaesthesia, post-anaesthesia, hypoesthesia, sedation, coma, tranquilization, behavioural submission, muscle relaxation and/or treating/ameliorating/preventing/combating insomnia, fatal insomnia, sleep onset latency, delayed sleep phase disorder, exploding head syndrome, parasomnia, sleep-maintenance insomnia, sleep disorder etc.; repeated/continuous administration, e.g. repeated i.v. injections or continuous i.v. infusion, of a compound(s) of this disclosure can sedate a subject for an extended period of time). Smaller drug dose, and/or higher ambient temperature, causes lighter sedation (e.g. useful for anti-anxiety, anti-depression, hyperactivity etc.). At ambient≥optimal body temperature (37° C.), no sedation occurs. […]

[6] = read-out: Mean % cancer growth inhibition
[7] = read-out: Median % cancer growth inhibition

1-56: Bos taurus IF1 protein fragment, residues 1-56 (GSESGDNVRSSAGAVRDAGGAFGKREQAEEERYFRARAKEQLAALKKHHENEISHH; UniProt P01096 26-81, looked up, fragment) [Compound 1-56]
IC50 (F1F0 ATP hydrolysis [1]): 32 nM

N#Cc1cccc(C(=O)/N=C(\Nc2ccc(Cl)cc2)N[C@@H](Cn2ccnc2)c2ccc(Cl)cc2Cl)c1 [Compound 6a]
anti-cancer activity [2]: anti-cancer activity
ability to inhibit/reduce F1F0 ATP hydrolysis (F1F0 ATP hydrolysis [3]): cannot

[2H][C@@](Cn1ccnc1)(N/C(=N/C(=O)c1cccc(C#N)c1)Nc1ccc(Cl)cc1)c1ccc(Cl)cc1Cl [Compound 7a]
anti-cancer activity [2]: less anti-cancer activity than 6a

10-47: Bos taurus IF1 protein fragment, residues 10-47, mature numbering (SSAGAVRDAGGAFGKREQAEEERYFRARAKEQLAALKK; UniProt P01096 35-72, looked up, fragment) [Compound 10-47]
IC50 (F1F0 ATP hydrolysis [1]): 45 nM

1-60: Bos taurus IF1 protein fragment, residues 1-60 (GSESGDNVRSSAGAVRDAGGAFGKREQAEEERYFRARAKEQLAALKKHHENEISHHAKEI; UniProt P01096 26-85, looked up, fragment) [Compound 1-60]
IC50 (F1F0 ATP hydrolysis [1]): 19 nM

RRRRRRR (Cell Penetrating Peptide (CPP) sequence) [Compound R7, heptamer of L-arginine residues, cell penetrating peptide]
cellular penetration compared with Tat or penetratin (cells): twice as good

C[C@@](Cn1ccnc1)(N/C(=N/C(=O)c1cccc(C#N)c1)Nc1ccc(Cl)cc1)c1ccc(Cl)cc1Cl [Compound 8a]
inhibition at 10 µM [2, 6]: 60.3%
inhibition at 10 µM [2, 7]: 59.8%
Δ % cancer growth inhibition, 8a greater than 8b (A498): 38.57
anti-cancer activity (NCI-H322M): no activity
inhibition at 10 µM [4, 6]: 103%
inhibition at 10 µM [4, 7]: 95%

10-46: Bovine IF1 protein fragment, residues 10-46 (SSAGAVRDAGGAFGKREQAEEERYFRARAKEQLAALK; UniProt P01096 35-71, looked up, fragment) [Compound 10-46]
inhibitory activity (F1F0 ATP hydrolysis [1]; bovine IF1 protein fragments, FIG. 10I legend [142, 144]): ten-fold less activity than 10-47

C[C@](Cn1ccnc1)(N/C(=N/C(=O)c1cccc(C#N)c1)Nc1ccc(Cl)cc1)c1ccc(Cl)cc1Cl [Compound 8b]
inhibition at 10 µM [2, 6]: 76.5%
inhibition at 10 µM [2, 7]: 77%
anti-cancer activity [2]: greater anti-cancer activity than 8a
Δ % cancer growth inhibition, 8b greater than 8a (MDA-MB-231/ATCC): 85.34%
anti-cancer activity (NCI-H322M): does
inhibition at 10 µM [4, 6]: 99.4%
inhibition at 10 µM [4, 7]: 93%

N#Cc1cccc(C(=O)/N=C(\Nc2ccc(Cl)cc2)N[C@H](Cn2ccnc2)c2ccc(Cl)cc2Cl)c1 [Compound 6b]
anti-cancer activity [2]: anti-cancer activity
rectal temperature ([5]; ambient room temperature 22° C., dose dependent): reduces its rectal temperature towards the ambient room temperature
hypoactivity ([5]; ambient temperature 22° C.): hypoactivity
ability to inhibit/reduce F1F0 ATP hydrolysis (F1F0 ATP hydrolysis [3]): can potently inhibit/reduce F1F0 ATP hydrolysis

Bos taurus IF1 protein: Bos taurus IF1 protein recombinantly produced in E. Coli
IC50 (F1F0 ATP hydrolysis [1]): 34 nM
